Source: patent US8557738B2, “Nitrogen-containing heterocyclic derivative and fungicide for agricultural and horticultural use” (Nippon Soda Co., Ltd., priority 2008, dated 2013)

Assays:
[1] = test system: apple scab pathogen (Venturia inaequalis); assay: Apple scab control test; type: in vivo; conditions: 336 h, emulsion sprayed at 100 ppm active ingredient onto apple seedlings (Ralls Janet), lesions on leaves after 2 weeks vs untreated, read-out: control value
[2] = test system: cucumber gray mold pathogen (Botrytis cinerea); assay: Cucumber gray mold control test; type: in vivo; conditions: 96 h, emulsion sprayed at 100 ppm active ingredient onto cucumber seedlings (Sagami Hanjiro), lesions on leaves after 4 days vs untreated, read-out: control value

Compound	melting point	pest or weed control at 100 ppm [1]	pest or weed control at 100 ppm [2]
CC1(C)CN=C(c2cnc3sccc3c2)c2cccc(Cl)c2O1 [A1-20, 9-Chloro-2,2-dimethyl-5-(thieno[2,3-b]pyridin-5-yl)-2,3-dihydro-benzo[f][1,4]oxazepine]	–	≥ 75%	–
c1ccc2c(c1)OCCN=C2c1cnc2ccccc2c1 [B1-1, 5-(3-Quinolinyl)-2,3-dihydro-benzo[f][1,4]oxazepine]	115 to 117 °C	≥ 75%	–
CC1(C)CN=C(c2cnc3ccccc3c2)c2ccccc2O1 [B1-9, 2,2-Dimethyl-5-(3-quinolinyl)-2,3-dihydro-benzo[f][1,4]oxazepine]	–	≥ 75%	≥ 75%
CC1(C(F)(F)F)CN=C(c2cnc3ccccc3c2)c2ccccc2O1 (stereo not shown) [B1-51, 2-Methyl-5-quinolin-3-yl-2-trifluoromethyl-2,3-dihydro-benzo[f][1,4]oxazepine]	–	≥ 75%	–
CC1(Cc2ccc(F)cc2)CN=C(c2cnc3ccccc3c2)c2ccccc2O1 (stereo not shown) [B1-53, 2-(4-Fluorobenzyl)-2-methyl-5-quinolin-3-yl-2,3-dihydro-benzo[f][1,4]oxazepine]	–	≥ 75%	–
CC1(C)CN=C(c2cnc3ccccc3c2)c2cccc(C#N)c2O1 [B1-54, 2,2-Dimethyl-5-quinolin-3-yl-2,3-dihydro-benzo[f][1,4]oxazepine-9-carbonitrile]	–	≥ 75%	–
COc1cccc2c1OC(C)(C)CN=C2c1cnc2ccccc2c1 [B1-55, 9-Methoxy-2,2-dimethyl-5-quinolin-3-yl-2,3-dihydro-benzo[f][1,4]oxazepine]	153 to 155 °C	–	–
CC1(C(F)(F)F)CN=C(c2cnc3c(F)cccc3c2)c2ccccc2O1 (stereo not shown) [B1-56, 5-(8-Fluoro-quinolin-3-yl)-2-methyl-2-trifluoromethyl-2,3-dihydro-benzo[f][1,4]oxazepine]	103 to 105 °C	≥ 75%	–
CC1(C)CN=C(c2cnc3cccc(Cl)c3c2)c2cccc(Cl)c2O1 [B1-57, 9-Chloro-5-(5-chloro-quinolin-3-yl)-2,2-dimethyl-2,3-dihydro-benzo[f][1,4]oxazepine]	157 to 159 °C	–	–
Cc1cccc2ncc(C3=NCC(C)(C)Oc4c(Cl)cccc43)cc12 [B1-58, 9-Chloro-2,2-dimethyl-5-(5-methyl-quinolin-3-yl)-2,3-dihydro-benzo[f][1,4]oxazepine]	160 to 162 °C	–	–
Cc1ccc2ncc(C3=NCC(C)(C)Oc4c(Cl)cccc43)cc2c1 [B1-60, 9-Chloro-2,2-dimethyl-5-(6-methylquinolin-3-yl)-2,3-dihydro-benzo[f][1,4]oxazepine]	166 to 168 °C	–	–
CC1(C2CC2)CN=C(c2cnc3ccccc3c2)c2ccccc2O1 (stereo not shown) [B1-70, 2-Cyclopropyl-2-methyl-5-quinolin-3-yl-2,3-dihydro-benzo[f][1,4]oxazepine]	–	≥ 75%	≥ 75%
c1ccc2c(c1)OC1(CC1)CN=C2c1cnc2ccccc2c1 [B1-72, 5-Quinolin-3-yl-2,3-dihydro-benzo[f][1,4]oxazepine-2-spiro-cyclopropane]	102 to 104 °C	–	≥ 75%
CC1(C)CN=C(c2cnc3ccccc3c2)c2cccc(Cc3ccccc3)c2O1 [B1-74, 9-Benzyl-2,2-dimethyl-5-quinolin-3-yl-2,3-dihydro-benzo[f][1,4]oxazepine]	–	–	≥ 75%
CC1(C)CN=C(c2cnc3ccccc3c2)c2cc(Cl)ccc2O1 [B1-77, 7-Chloro-2,2-dimethyl-5-quinolin-3-yl-2,3-dihydro-benzo[f][1,4]oxazepine]	–	–	≥ 75%
c1ccc2c(c1)N=C(c1cnc3ccccc3c1)c1ccccc1O2 [B1-83, 11-Quinolin-3-yl-dibenzo[b,f][1,4]oxazepine]	182 to 184 °C	–	–
O=C1COc2ccccc2C(c2cnc3ccccc3c2)=N1 [B1-84, 5-Quinolin-3-yl-benzo[f][1,4]oxazepin-3-one]	169 to 170 °C	–	≥ 75%
CC1(C)COc2cc(F)ccc2C(c2cnc3ccccc3c2)=N1 [B1-85, 8-Fluoro-3,3-dimethyl-5-quinolin-3-yl-2,3-dihydro-benzo[f][1,4]oxazepine]	133 to 135 °C	–	–
CC1(C)CN=C(c2cnc3c(F)cccc3c2)c2ccccc2S1 [B2-13, 2,2-Dimethyl-5-(8-fluoro-quinolin-3-yl)-2,3-dihydro-benzo[f][1,4]thiazepine]	181 to 183 °C	–	–

More lines, main results first:

melting point	Compound	pest or weed control at 100 ppm [1]	pest or weed control at 100 ppm [2]
119 to 122 °C	CC1(C)CN=C(c2cnc3ccccc3c2)c2cccc(F)c2S1 [B2-14, 4-Fluoro-6,6-dimethyl-9-quinolin-3-yl-6,7-dihydro-5-thia-8-aza-benzocycloheptene]	–	–
179 to 181 °C	CC1(C)CN=C(c2cnc3c(F)cccc3c2)c2cccc(F)c2S1 [B2-15, 4-Fluoro-9-(8-fluoro-quinolin-3-yl)-6,6-dimethyl-6,7-dihydro-5-thia-8-aza-benzocycloheptene]	–	–
118 to 120 °C	CC1(C)CN=C(c2cnc3ccccc3c2)c2ccccc2[S+]1[O-] (stereo not shown) [B2-16, 6,6-Dimethyl-9-quinolin-3-yl-6,7-dihydro-5-thia-8-aza-benzocycloheptene 5-oxide]	–	–
225 to 227 °C	O=C1COc2ccccc2C(c2cnc3ccccc3c2)N1 (stereo not shown) [B4-46, 5-Quinolin-3-yl-4,5-dihydro-benzo[f][1,4]oxazepin-3-one]	–	–
130 to 131 °C	CC1(C)CNC(c2cnc3c(F)cccc3c2)c2cccc(F)c2O1 (stereo not shown) [B4-47, 9-Fluoro-5-(8-fluoro-quinolin-3-yl)-2,2-dimethyl-2,3,4,5-tetrahydro-benzo[f][1,4]oxazepine]	–	–
117 to 118 °C	CCN1CC(C)(C)Oc2c(F)cccc2C1c1cnc2c(F)cccc2c1 (stereo not shown) [B4-48, 4-Ethyl-9-fluoro-5-(8-fluoro-quinolin-3-yl)-2,2-dimethyl-2,3,4,5-tetrahydro-benzo[f][1,4]oxazepine]	–	–
133 to 134 °C	CC1(C)CNC(c2cnc3c(F)cccc3c2)c2cccc(Cl)c2O1 (stereo not shown) [B4-49, 9-Chloro-5-(8-fluoro-quinolin-3-yl)-2,2-dimethyl-2,3,4,5-tetrahydro-benzo[f][1,4]oxazepine]	–	–
138 to 141 °C	CC1(C)CN(Cc2ccccc2)C(c2cnc3c(F)cccc3c2)c2cccc(Cl)c2O1 (stereo not shown) [B4-50, 4-Benzyl-9-chloro-5-(8-fluoro-quinolin-3-yl)-2,2-dimethyl-2,3,4,5-tetrahydro-benzo[f][1,4]oxazepine]	–	≥ 75%
131 to 133 °C	CC1(C)CN(C=O)C(c2cnc3c(F)cccc3c2)c2cccc(F)c2O1 (stereo not shown) [B4-51, 9-Fluoro-5-(8-fluoro-quinolin-3-yl)-2,2-dimethyl-2,3-dihydro-5H-benzo[f][1,4]oxazepine-4-carbaldehyde]	–	–
132 to 134 °C	CC(=O)N1CC(C)(C)Oc2c(F)cccc2C1c1cnc2c(F)cccc2c1 (stereo not shown) [B4-52, 1-[9-Fluoro-5-(8-fluoro-quinolin-3-yl)-2,2-dimethyl-2,3-dihydro-5H-benzo[f][1,4]oxazepin-4-yl]-ethanone]	–	–
225 to 227 °C	CC1(C)Oc2ccccc2C(c2cnc3ccccc3c2)NC1=O (stereo not shown) [B4-53, 2,2-Dimethyl-5-quinolin-3-yl-4,5-dihydro-benzo[f][1,4]oxazepin-3-one]	–	–
